“Also recorded” adds a separate entry of the source.
Legend:
E. coli = assay: Contact-killing assay (adapted from ISO 22196) on allyl-TPU blade-coated samples modified with Qx-SH; type: cell-based, Escherichia coli (ATCC 25922); details: for log reduction in E. coli compared to the negative control / reduction in E. coli compared to the negative control: 24 h contact-killing assay; for Mean CFU/Sample Recovered, E. coli: n = 2, negative control polypropylene 2.04 (±0.06) × 10^6
Description: (§1) To functionalize the allyl-TPU blade-coated samples with Qx-SH reagents, thiol-ene reactions were performed using the same procedure described for rhodamine-SH. Briefly, blade-coated films of allyl-TPU (250 μm thick, 2.0 cm diameter, ca. 110 mg, 20 μmol allyl) were submerged in 2 mL of an Ar purged (30 min) aqueous solution containing Qx-SH (10.0 mM) and LAP (5.0 mM), and allowed to pre-soak for 30 min under Ar. UV-treated samples were irradiated for 30 min (λ=365 nm, I=1.2 mW·cm^−2) while phys. ads. samples were kept in the absence of UV light for 30 min to control for any antimicrobial activity that is contributed by non-covalently attached QAC. Following treatment, the dye/photoinitiator solutions were drawn up and discarded, and the samples were rinsed with 5 mL of DI water (3×) then submerged in 5 mL of DI water. The samples were further rinsed with 10% EtOH (3×) and soaked in 10% EtOH for 15 min (3×), rinsing with 10% EtOH in between each soak.
(§2) For antimicrobial testing, blade-coated samples and catheter tubing of allyl-TPU were sterilized by EtO sterilization using an Anprolene benchtop sterilizer (Anderson Products, Inc., Haw River, N.C.) following the manufacturer's protocol to deliver approximately 0.5 cc·L^−1 of EtO gas over a 12 h sterilization cycle at 35% humidity and room temperature, followed by a 48 h purge under vacuum. The bacterial strains used in this study included Staphylococcus epidermidis (ATCC 12228), Staphylococcus aureus (25923), Escherichia coli (ATCC 25922), Pseudomonas aeruginosa (ATCC 27853), Enterococcus faecalis (ATCC 29212), and methicillin-resistant Staphylococcus aureus (MRSA) (ATCC BAA-41).
The contact-killing assay was performed on physically adsorbed (phys. ads.), and UV-treated blade-coated samples modified with a series of Qx-SH reagents using a method adapted from ISO 22196. See, International Organization for Standardization. Measurement of antibacterial activity on plastics and other non porous surfaces (ISO 22196:2011), the disclosure of which is incorporated herein by reference in its entirety. Briefly, the samples were inoculated with same day cultures of select bacteria (e.g. E. coli, S. epidermidis) in dilute nutrient media (0.2% tryptic soy broth (TSB) in 1× phosphate buffered saline (PBS)) at approximately 150 colony-forming units (CFU)·mm^−2. Generally, 35 uL of 8.5×10^5 CFU/mL cultures were dispersed across the surface of the sample using sterile polypropylene cover films (area=198 mm^2). […] Following incubation, surviving cells were recovered from the samples using vigorous agitation (i.e. vortexing for 20 s in PBS). Surviving cells were enumerated via 10-fold series dilution and plating 100 μL onto tryptic soy agar (TSA), incubating overnight and then plate counting CFU. The mean CFU recovered per sample (CFU/sample) were calculated by accounting for dilutions. Internal controls samples of polypropylene and chlorhexidine treated with polypropylene were included in the assay.

MRSA = assay: as above; type: cell-based; details: n = 1, negative control polypropylene 1.51 × 10^5
Description: as §1, §2
(§3) The contact-killing assay was performed on physically adsorbed (phys. ads.), and UV-treated blade-coated samples modified with a series of Qx-SH reagents using a method adapted from ISO 22196. See, International Organization for Standardization. Measurement of antibacterial activity on plastics and other non porous surfaces (ISO 22196:2011), the disclosure of which is incorporated herein by reference in its entirety. Briefly, the samples were inoculated with same day cultures of select bacteria (e.g. E. coli, S. epidermidis) in dilute nutrient media (0.2% tryptic soy broth (TSB) in 1× phosphate buffered saline (PBS)) at approximately 150 colony-forming units (CFU)·mm^−2. Generally, 35 uL of 8.5×10^5 CFU/mL cultures were dispersed across the surface of the sample using sterile polypropylene cover films (area=198 mm^2). Inoculated samples were incubated in a humidified room air incubator (36° C., ca. 80% rel. humidity) for 20 h. Following incubation, surviving cells were recovered from the samples using vigorous agitation (i.e. vortexing for 20 s in PBS). Surviving cells were enumerated via 10-fold series dilution and plating 100 μL onto tryptic soy agar (TSA), incubating overnight and then plate counting CFU. The mean CFU recovered per sample (CFU/sample) were calculated by accounting for dilutions. Internal controls samples of polypropylene and chlorhexidine treated with polypropylene were included in the assay.

E. faecalis = assay: as above; type: cell-based, Enterococcus faecalis (ATCC 29212); details: n = 1, negative control polypropylene 1.70 × 10^5
Description: as §1, §2, §3

S. aureus = assay: Live/dead fluorescence assay on blade-coated samples modified with Q8-SH; type: cell-based, Staphylococcus aureus (25923); details: within 5 min
Description: as §2
A live/dead assay was performed using overnight cultures of E. coli grown in TSB and S. aureus grown in Mueller-Hinton broth (MH). The cells were washed with PBS (3×), resuspended in PBS, and diluted to obtain an OD600=0.15 (measured using a Hach DR2800 Spectrophotometer, λ=600 nm). The bacterial suspensions (1.0 mL) were stained with 2.0 μL of a dye mixture containing equal portions of 3.34 mM SYTO 9 and 20 mM propidium iodide (L7012 LIVE/DEAD™ BACLIGHT™ Bacterial Viability Kit, ThermoFisher Scientific) and allowed to incubate at room temperature in the dark for 15 min. […] Live/dead microscopy was performed using an IX81 inverted microscope (Olympus, Center Valley, Pa.) and images were processed and quantified using ImageJ software.

NIH/3T3 fibroblast cells = assay: Cell viability assay (LIVE/DEAD staining) on coated coverslips; type: cell-based; details: for cell viability relative to glass: 24 h
Description: NIH/3T3 fibroblast cells (ATCC CRL-1658) were used to assess cell viability (passage 9) on the allyl-TPU films. The 8% allyl-TPU was spin-coated on blank glass coverslips (1 wt. % in chloroform) and samples were annealed at 60° C. for 1 h, then kept under vacuum for 24 h. The coated coverslips were then treated and rinsed as previously described to produce a control, phys. ads., and UV-treated sample modified with Q8-SH. Samples were sterilized by short-wave UV sterilization for 30 minutes. Cells were seeded at a cell density of 194,000 cells/cm^2 and cultured for 24 hours in a 37° C. incubator. Samples were then removed and stained with a LIVE/DEAD™ Viability/Cytotoxicity Kit (ThermoFisher Scientific L3224). Slides were analyzed with a Keyence BZ-X700 microscope at 20× magnification. Pictograms were analyzed with ImageJ software for cell viability counting (n=5). All groups were compared to the glass slide control.

Structure (SMILES): CCCCCCCC[N+](C)(C)CCCCCCCCOC(=O)CCS.[Cl-] [Q8-SH]
- log reduction in E. coli compared to the negative control (E. coli; UV-treated samples): 6 log
- reduction in E. coli compared to the negative control (E. coli; UV-treated samples): 99.9999%
- Mean CFU/Sample Recovered, E. coli (E. coli; UV-treated samples): 0.00 ± 0.00 CFU/Sample
- log reduction in E. coli compared to the negative control (E. coli; phys. ads. samples): 6 log
- reduction in E. coli compared to the negative control (E. coli; phys. ads. samples): 99.9999%
- Mean CFU/Sample Recovered, E. coli (E. coli; phys. ads. samples): 0.00 ± 0.00 CFU/Sample
- Mean CFU/Sample Recovered, MRSA (MRSA; UV-treated samples): 0.00 CFU/Sample
- Mean CFU/Sample Recovered, MRSA (MRSA; phys. ads. samples): 0.00 CFU/Sample
- Mean CFU/Sample Recovered, E. faecalis (E. faecalis; UV-treated samples): 0.00 CFU/Sample
- Mean CFU/Sample Recovered, E. faecalis (E. faecalis; phys. ads. samples): 0.00 CFU/Sample
- portion of S. aureus killed (S. aureus; UV-treated samples): ca. 75%
- S. aureus inoculum killed (in words) (S. aureus; UV-treated samples, within 10 min, OD600=0.15): nearly all; also recorded: majority
- portion of S. aureus killed (S. aureus; phys. ads. samples): ca. 50%
- cell viability relative to glass (NIH/3T3 fibroblast cells; UV-treated samples): > 90%
- cytotoxicity towards mammalian cells (in words) (NIH/3T3 fibroblast cells; control, phys. ads. and UV-treated samples compared to a glass slide control, FIG. 68): non-cytotoxic
- cell viability relative to glass (NIH/3T3 fibroblast cells; phys. ads. samples): > 90%

Reference: patent publication US11155668B2, “Contact-killing, QAC functionalized thermoplastic polyurethane for catheter applications” (THE UNIVERSITY OF AKRON, priority 2017, dated 2021)
